Assays:
Type in all cases: cell-based
SW480 colon cancer cells = assay: Cell viability assay (CellTiter-Blue); conditions: Homo sapiens, 96 h, four days; for inhibition at 10 µM: given for EC50 >10 μM, read-out: percent inhibition at 10 μM
How it was run: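 Approximately 2×10^3 SW480 cells per well are seeded with compound (8 points, threefold steps, top 10 μM) and incubated four days at 37 °C. CellTiter-Blue is then added for about 3 h and fluorescence read. Non-linear regression gives EC50; for values beyond 10 μM, percent inhibition at that concentration is listed.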

[1] = system: IL-6 (THP-1 human monocyte cell line); assay: IL-6 inhibition in LPS-stimulated THP-1 cells (HTRF); conditions: LPS 500 ng/mL; for EC50: 22 hours, IL6 HTRF; for inhibition at 10 µM: given for EC50 >10 μM, read-out: percent inhibition at 10 μM
How it was run: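 THP-1 cells, serum-reduced to 1% FBS for 24 h, preincubated 2 h at 37° C with compound (10-point, 1:3 series, 0.1% DMSO), then stimulated with 500 ng/mL LPS for 22 h. IL-6 quantified by HTRF 665/620 nm ratio, normalized to DMSO; EC50 by four-parameter fit, else percent inhibition at 10 μM.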

[2] = system: primary human fibroblasts derived from IPF patients (LL29 cells); assay: Inhibition of fibrotic process, αSMA staining in TGF-β1 treated LL29 fibroblasts; conditions: Fibroblast, 96 h, TGF-β1 20 ng/mL, 4 days; for EC50: % αSMA positive cells; for inhibition at 10 µM: given for EC50 >10 μM, read-out: percent inhibition at 10 μM
How it was run: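 IPF-patient LL29 lung fibroblasts in 1% FBS medium received compound (11-point, 1:2 dilution, 0.1% DMSO) plus TGF-β1 20 ng/mL, 4 days at 37 °C. Percent αSMA-positive cells among SYTOX-negative cells quantified by immunofluorescence imaging, normalized to TGF-β1/DMSO wells. EC50 by non-linear regression on triplicates; above 10 μM, % inhibition at 10 μM given.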

SMILES | EC50 (SW480 colon cancer cells) [µM] | EC50 [1] [µM] | EC50 [2] [µM] | inhibition at 10 µM (SW480 colon cancer cells) [%] | inhibition at 10 µM [1] [%] | inhibition at 10 µM [2] [%]
CC(C)(C)CC(=O)Nc1cncc(-c2cnc3[nH]nc(-c4cc5cccnc5[nH]4)c3c2)c1 [Compound 268, N-(5-(3-(1H-Pyrrolo[2,3-b]pyridin-2-yl)-1H-pyrazolo[3,4-b]pyridin-5-yl)pyridin-3-yl)-3,3-dimethylbutanamide] | 1.99 | 0.359 | 0.42 |  |  | 
c1csc(-c2ccnc3[nH]c(-c4n[nH]c5ncc(-c6cncc(OC7CCCCC7)c6)cc45)cc23)c1 [Compound 703, 5-(5-(Cyclohexyloxy)pyridin-3-yl)-3-(4-(thiophen-2-yl)-1H-pyrrolo[2,3-b]pyridin-2-yl)-1H-pyrazolo[3,4-b]pyridine] | > 10 | > 10 | 2.51 | 23.3 | 11 | 
CC(C)C(=O)Nc1cncc(-c2cnc3[nH]nc(-c4cc5c(-c6cccnc6)ccnc5[nH]4)c3c2)c1 [Compound 93, N-(5-(3-(4-(Pyridin-3-yl)-1H-pyrrolo[2,3-b]pyridin-2-yl)-1H-pyrazolo[3,4-b]pyridin-5-yl)pyridin-3-yl)isobutyramide] | > 10 | > 10 | > 10 | 10.1 | 26.2 | 42.1
O=C(Nc1cncc(-c2cnc3[nH]nc(-c4cc5c(-c6ccncc6)ccnc5[nH]4)c3c2)c1)C1CCCCC1 [Compound 135, N-(5-(3-(4-(Pyridin-4-yl)-1H-pyrrolo[2,3-b]pyridin-2-yl)-1H-pyrazolo[3,4-b]pyridin-5-yl)pyridin-3-yl)cyclohexanecarboxamide] | > 10 | > 10 | > 10 | 13.9 | 37.7 | 19.8
CCC(=O)Nc1cncc(-c2cnc3[nH]nc(-c4cc5c(N6CCCCC6)ccnc5[nH]4)c3c2)c1 [Compound 169, N-(5-(3-(4-(Piperidin-1-yl)-1H-pyrrolo[2,3-b]pyridin-2-yl)-1H-pyrazolo[3,4-b]pyridin-5-yl)pyridin-3-yl)propionamide] | > 10 | 4.81 | 2.98 | 36.1 |  | 

The next lines start with results.

EC50 (SW480 colon cancer cells) [µM] | EC50 [1] [µM] | SMILES | EC50 [2] [µM] | inhibition at 10 µM (SW480 colon cancer cells) [%] | inhibition at 10 µM [1] [%] | inhibition at 10 µM [2] [%]
> 10 | > 10 | CN(C)Cc1cncc(-c2cnc3[nH]nc(-c4cc5c(-c6cccnc6)ccnc5[nH]4)c3c2)c1 [Compound 97, N,N-Dimethyl-1-(5-(3-(4-(pyridin-3-yl)-1H-pyrrolo[2,3-b]pyridin-2-yl)-1H-pyrazolo[3,4-b]pyridin-5-yl)pyridin-3-yl)methanamine] | > 10 | 19.6 | 38.5 | 0
> 10 | > 10 | O=C(Nc1cncc(-c2cnc3[nH]nc(-c4cc5c(-c6ccc(F)cc6)ccnc5[nH]4)c3c2)c1)C1CCCCC1 [Compound 51, N-(5-(3-(4-(4-Fluorophenyl)-1H-pyrrolo[2,3-b]pyridin-2-yl)-1H-pyrazolo [3,4-b]pyridin-5-yl)pyridin-3-yl)cyclohexanecarboxamide] | > 10 | 17.7 | 19.4 | 1.3
> 10 | > 10 | Fc1ccc(-c2ccnc3[nH]c(-c4n[nH]c5ncc(-c6cncc(CN7CCC(F)(F)C7)c6)cc45)cc23)cc1 [Compound 54, 5-(5-((3,3-Difluoropyrrolidin-1-yl)methyl)pyridin-3-yl)-3-(4-(4-fluorophenyl)-1H-pyrrolo[2,3-b]pyridin-2-yl)-1H-pyrazolo[3,4-b]pyridine] | 4.88 | 6.9 | 32.3 | 
